Data published in paper PMC11241008, “Response Plasticity of Drosophila Olfactory Sensory Neurons” (International Journal of Molecular Sciences, 2024).

What was measured:
[1] = target: T1, Or56a (Drosophila melanogaster, UniProt Q9V8Y7); assay: GCaMP6f calcium imaging of native OSN somata, open antenna; settings: agonist; Drosophila Ringer pH 7.3; Hill coefficient 0.6; concentration as applied; n = 9
T1 construct: native receptor in ab4B olfactory sensory neurons of excised open antenna, with endogenous Orco; GCaMP6f calcium reporter; no heterologous expression; with Odorant receptor coreceptor
T1 sequence (Q9V8Y7 1-419): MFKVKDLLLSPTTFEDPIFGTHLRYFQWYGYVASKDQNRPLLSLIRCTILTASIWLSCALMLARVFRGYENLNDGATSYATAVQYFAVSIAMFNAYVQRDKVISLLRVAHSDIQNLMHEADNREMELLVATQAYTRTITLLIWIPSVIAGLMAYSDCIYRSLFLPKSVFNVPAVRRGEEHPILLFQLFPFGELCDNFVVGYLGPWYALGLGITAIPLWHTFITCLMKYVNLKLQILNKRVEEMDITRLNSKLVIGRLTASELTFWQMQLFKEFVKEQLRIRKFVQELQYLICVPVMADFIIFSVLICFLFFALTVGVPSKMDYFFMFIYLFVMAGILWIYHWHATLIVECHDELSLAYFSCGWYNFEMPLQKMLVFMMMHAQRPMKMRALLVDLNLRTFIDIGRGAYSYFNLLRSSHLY
T1 sequence (Q9VNB5 1-486 partner): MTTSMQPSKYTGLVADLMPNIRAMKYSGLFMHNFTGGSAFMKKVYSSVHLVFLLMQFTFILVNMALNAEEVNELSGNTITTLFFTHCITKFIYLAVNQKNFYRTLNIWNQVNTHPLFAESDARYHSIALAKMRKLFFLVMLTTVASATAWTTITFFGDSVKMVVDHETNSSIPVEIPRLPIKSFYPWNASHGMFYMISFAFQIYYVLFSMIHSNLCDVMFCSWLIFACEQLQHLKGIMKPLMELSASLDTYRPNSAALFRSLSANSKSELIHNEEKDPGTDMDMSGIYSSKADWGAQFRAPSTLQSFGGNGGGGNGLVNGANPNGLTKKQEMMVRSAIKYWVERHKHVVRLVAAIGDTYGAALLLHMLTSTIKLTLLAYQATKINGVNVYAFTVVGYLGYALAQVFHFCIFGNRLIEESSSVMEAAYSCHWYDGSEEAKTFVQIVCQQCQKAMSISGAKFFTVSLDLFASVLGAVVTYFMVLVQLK

[2] = target: T2, Or22a (Drosophila melanogaster, UniProt P81909); assay: as above; settings: agonist; Drosophila Ringer pH 7.3; Hill coefficient 0.8; concentration as applied; n = 12
T2 construct: native receptor in ab3A olfactory sensory neurons of excised open antenna, with endogenous Orco; GCaMP6f calcium reporter; no heterologous expression; with Odorant receptor coreceptor
T2 sequence (P81909 1-397): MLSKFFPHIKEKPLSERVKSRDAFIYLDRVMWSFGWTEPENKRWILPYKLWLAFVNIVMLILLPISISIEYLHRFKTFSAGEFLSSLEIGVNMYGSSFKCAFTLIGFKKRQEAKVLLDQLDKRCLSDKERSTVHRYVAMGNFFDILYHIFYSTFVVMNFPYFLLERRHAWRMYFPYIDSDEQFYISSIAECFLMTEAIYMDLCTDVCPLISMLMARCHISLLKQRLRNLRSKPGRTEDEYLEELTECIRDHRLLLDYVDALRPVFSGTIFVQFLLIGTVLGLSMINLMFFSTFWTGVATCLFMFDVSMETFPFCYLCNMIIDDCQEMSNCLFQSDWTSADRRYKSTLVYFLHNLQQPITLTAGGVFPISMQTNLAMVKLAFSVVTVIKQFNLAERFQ
T2 sequence (Q9VNB5 1-486 partner): T1 sequence (Q9VNB5 1-486 partner)

CC1CCCC2(C)CCCCC12O (racemic) [geosmin]
EC50 [1]: 0.025 µM

CCCCCC(=O)OCC [ethyl hexanoate]
EC50 [2]: 1.5 µM
